# Target: Mitogen-activated protein kinase 14 (Homo sapiens, UniProt Q16539)
# Assay: Inhibition of p38alpha by immunosorbent based assay
# Mitogen-activated protein kinase 14, sequence (Q16539 whole entry): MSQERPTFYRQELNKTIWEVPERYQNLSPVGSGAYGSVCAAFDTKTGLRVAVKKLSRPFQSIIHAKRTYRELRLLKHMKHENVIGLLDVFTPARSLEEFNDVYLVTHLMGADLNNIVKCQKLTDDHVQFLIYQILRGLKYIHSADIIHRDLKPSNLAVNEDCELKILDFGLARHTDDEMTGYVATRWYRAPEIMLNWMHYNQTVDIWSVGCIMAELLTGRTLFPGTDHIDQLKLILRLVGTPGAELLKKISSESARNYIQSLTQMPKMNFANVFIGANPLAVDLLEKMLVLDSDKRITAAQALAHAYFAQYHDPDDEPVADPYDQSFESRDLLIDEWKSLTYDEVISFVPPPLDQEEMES
row,IC50,SMILES
1,110 nM,CSc1nc(-c2ccc(F)cc2)c(-c2ccnc(NC(C)=O)c2)n1CCO
2,170 nM,CSc1nc(-c2ccc(F)cc2)c(-c2ccnc(NC(=O)C3CC3)c2)n1C
3,3 nM,CSc1nc(-c2ccc(F)cc2)c(-c2ccnc(NC(=O)/C=C/c3c(Cl)cccc3Cl)c2)[nH]1
4,1490 nM,CSc1nc(-c2ccc(F)cc2)c(-c2ccnc(NC(C)=O)c2)n1CC(O)CO (centres undefined)
5,400 nM,CSc1nc(-c2ccc(F)cc2)c(-c2ccnc(NC(C)=O)c2)n1C1CC1
6,170 nM,C=CC(=O)Nc1cc(-c2c(-c3ccc(F)cc3)nc(SC)n2CCOC)ccn1
7,2240 nM,CSc1nc(-c2ccc(F)cc2)c(-c2ccnc(NC(C)=O)c2)n1CCC(=O)N1CCCCC1
8,240 nM,COCCn1c(SC)nc(-c2ccc(F)cc2)c1-c1ccnc(NC(=O)c2cccs2)c1
9,490 nM,COCCn1c(SC)nc(-c2ccc(F)cc2)c1-c1ccnc(NC(=O)CC(F)(F)F)c1
10,150 nM,CSc1nc(-c2ccc(F)cc2)c(-c2ccnc(NC(=O)C3CCCC3)c2)n1C
11,100 nM,CSc1nc(-c2ccc(F)cc2)c(-c2ccnc(NC(=O)c3ccc(-c4ccccc4)cc3)c2)[nH]1
12,130 nM,CSc1nc(-c2ccc(F)cc2)c(-c2ccnc(NC(=O)Cc3ccc(F)cc3)c2)n1C
13,100 nM,CCn1c(SC)nc(-c2ccc(F)cc2)c1-c1ccnc(NC(=O)/C=C/c2c(Cl)cccc2Cl)c1
14,180 nM,CSc1nc(-c2ccc(F)cc2)c(-c2ccnc(NC(C)=O)c2)n1CCCF
15,180 nM,CCC(=O)Nc1cc(-c2c(-c3ccc(F)cc3)nc(SC)n2CCOC)ccn1
16,2260 nM,CSc1nc(-c2ccc(F)cc2)c(-c2ccnc(NC(C)=O)c2)n1CCC(=O)O
17,110 nM,COCCn1c(SC)nc(-c2ccc(F)cc2)c1-c1ccnc(NC(C)=O)c1
18,130 nM,CSc1nc(-c2ccc(F)cc2)c(-c2ccnc(NC(=O)CCc3ccc(C(C)(C)C)cc3)c2)[nH]1
19,6280 nM,CSc1nc(-c2ccc(F)cc2)c(-c2ccnc(NC(C)=O)c2)n1C(CO)CO
20,60 nM,CCN(CC)C(=O)Cn1c(SC)nc(-c2ccc(F)cc2)c1-c1ccnc(NC(C)=O)c1

row,IC50,SMILES
1,100 nM,CSc1nc(-c2ccc(F)cc2)c(-c2ccnc(NC(=O)COc3ccc(Cl)cc3)c2)[nH]1
2,770 nM,CSc1nc(-c2ccc(F)cc2)c(-c2ccnc(NC(C)=O)c2)n1CCCCC(=O)O
3,53 nM,CSc1nc(-c2ccc(F)cc2)c(-c2ccnc(NC(=O)c3cc4ccccc4o3)c2)[nH]1
4,160 nM,CSc1nc(-c2ccc(F)cc2)c(-c2ccnc(NC(=O)COc3ccc(Cl)cc3Cl)c2)[nH]1
5,18 nM,COc1ccc(/C=C/C(=O)Nc2cc(-c3c(-c4ccc(F)cc4)nc(SC)n3C)ccn2)cc1
6,10 nM,COc1ccc(/C=C/C(=O)Nc2cc(-c3[nH]c(SC)nc3-c3ccc(F)cc3)ccn2)cc1
7,90 nM,CSc1nc(-c2ccc(F)cc2)c(-c2ccnc(NC(=O)C(C)c3ccc(CC(C)C)cc3)c2)[nH]1 (centres undefined)
8,170 nM,CSc1nc(-c2ccc(F)cc2)c(-c2ccnc(NC(=O)/C=C/c3c(Cl)cccc3Cl)c2)n1C
9,9 nM,CSc1nc(-c2ccnc(NC(=O)Cc3ccc(F)cc3)c2)c(-c2ccc(F)cc2)[nH]1
10,27 nM,CSc1nc(-c2ccc(F)cc2)c(-c2ccnc(NC(C)=O)c2)n1CCCBr
11,330 nM,COC(=O)CCn1c(SC)nc(-c2ccc(F)cc2)c1-c1ccnc(NC(C)=O)c1
12,17 nM,CSc1nc(-c2ccc(F)cc2)c(-c2ccnc(NC(C)=O)c2)n1CCCCl
13,32 nM,CSc1nc(-c2ccc(F)cc2)c(-c2ccnc(NC(=O)/C=C/c3ccc(C)cc3)c2)[nH]1
14,180 nM,CSc1nc(-c2ccc(F)cc2)c(-c2ccnc(NC(C)=O)c2)n1CCCCCl
15,75 nM,CCn1c(SC)nc(-c2ccc(F)cc2)c1-c1ccnc(NC(=O)/C=C/c2ccc(OC)cc2)c1
16,320 nM,CSc1nc(-c2ccc(F)cc2)c(-c2ccnc(NC(C)=O)c2)n1[C@H]1CC[C@H](O)CC1
17,280 nM,COc1ccc(/C=C/C(=O)Nc2cc(-c3c(-c4ccc(F)cc4)nc(SC)n3C)ccn2)c(OC)c1
18,93 nM,CCn1c(SC)nc(-c2ccc(F)cc2)c1-c1ccnc(NC(=O)Cc2ccc(F)cc2)c1
19,27 nM,CSc1nc(-c2ccc(F)cc2)c(-c2ccnc(NC(=O)C3=Cc4ccccc4OC3)c2)[nH]1
20,13 nM,CSc1nc(-c2ccc(F)cc2)c(-c2ccnc(NC(=O)c3ccco3)c2)[nH]1

row,IC50,SMILES
1,19 nM,CSc1nc(-c2ccc(F)cc2)c(-c2ccnc(NC(C)=O)c2)n1CCCI
2,6140 nM,CSc1nc(-c2ccc(F)cc2)c(-c2ccnc(NC(C)=O)c2)n1C(CCO)CCO
3,1200 nM,CCN(CC)C(=O)CCn1c(SC)nc(-c2ccc(F)cc2)c1-c1ccnc(NC(C)=O)c1
4,1620 nM,CSc1nc(-c2ccc(F)cc2)c(-c2ccnc(NC(C)=O)c2)n1CCCC(=O)O
5,160 nM,CSc1nc(-c2ccc(F)cc2)c(-c2ccnc(NC(=O)COc3cccc(Cl)c3Cl)c2)[nH]1
6,150 nM,CSc1nc(-c2ccc(F)cc2)c(-c2ccnc(NC(C)=O)c2)n1CCCl
7,14 nM,CSc1nc(-c2ccc(F)cc2)c(-c2ccnc(NC(=O)c3ccc(C)c(F)c3)c2)[nH]1
8,1570 nM,CSc1nc(-c2ccc(F)cc2)c(-c2ccnc(NC(C)=O)c2)n1CCC(=O)N1CCOCC1
9,440 nM,CCOC(=O)CCn1c(SC)nc(-c2ccc(F)cc2)c1-c1ccnc(NC(C)=O)c1
10,1140 nM,CSc1nc(-c2ccc(F)cc2)c(-c2ccnc(NC(C)=O)c2)n1CCC(=O)N1CCCC1
11,790 nM,CSc1nc(-c2ccc(F)cc2)c(-c2ccnc(NC(C)=O)c2)n1C1CCCCC1
12,780 nM,CSc1nc(-c2ccc(F)cc2)c(-c2ccnc(NC(C)=O)c2)n1C1CCOCC1
13,27 nM,CSc1nc(-c2ccc(F)cc2)c(-c2ccnc(NC(=O)/C(F)=C/c3ccccc3)c2)[nH]1
14,280 nM,CSc1nc(-c2ccc(F)cc2)c(-c2ccnc(NC(C)=O)c2)n1CC(=O)N1CCOCC1
15,38 nM,CCn1c(SC)nc(-c2ccc(F)cc2)c1-c1ccnc(NC(=O)/C=C/c2ccc(OC)cc2OC)c1
16,570 nM,CCC(CC)n1c(SC)nc(-c2ccc(F)cc2)c1-c1ccnc(NC(C)=O)c1
17,140 nM,CSc1nc(-c2ccc(F)cc2)c(-c2ccnc(NC(C)=O)c2)n1CCCCO
18,150 nM,CSc1nc(-c2ccc(F)cc2)c(-c2ccnc(NC(C)=O)c2)n1CCCO
19,22 nM,CSc1nc(-c2ccc(F)cc2)c(-c2ccnc(NC(=O)Cc3ccc(Cl)cc3)c2)n1C

# From ChEMBL document CHEMBL1268993, “Tri- and tetrasubstituted imidazoles as p38α mitogen-activated protein kinase inhibitors” (Bioorg Med Chem Lett, 2010)
